Experimental data taken from PMC12679539, “Synthesis and evaluation of nitroheterocyclic aromatic adamantane amides with trypanocidal activity. Part II” (RSC Medicinal Chemistry, 2025).

How the values were obtained:
[1] = system: L. infantum promastigotes; assay: Activity against Leishmania infantum promastigotes (resazurin assay); assay type: cell-based, Leishmania infantum (MHOM/MA/67/ITMAP-263); details: for IC50: Leishmania infantum, promastigotes, 72 h, 95% CI in brackets; for SI (promastigotes) CC50/Li IC50: THP-1 CC50 / L. infantum promastigote IC50
Protocol: Promastigotes from the L. infantum strain (MHOM/MA/67/ITMAP-263) were cultivated in 5 ml of Schneider's insect medium, which was supplemented with 10% heat-inactivated fetal bovine serum (FBS), 200 U ml^−1 of penicillin/streptomycin, 6 μg ml^−1 of phenol red, and 5 mM of HEPES. The cultures were maintained in an incubator at 27 °C and diluted to a concentration of 2 × 10^5 cells per ml every 5 days. For the assays the parasites used were equivalent to late/log with two or three days of culture.
The efficacy of the compounds against L. infantum promastigotes was evaluated using a resazurin-based assay. Parasites were added to 100 μl of serial dilutions of the compounds in supplemented complete medium at a cell density of 5 × 10^5 ml^−1. As a quality control, a dose–response curve with the antileishmanial drug miltefosine was included in all assays. The final volume of each assay was 200 μl per well, and each condition was tested in duplicate. After a 72-hour incubation under specific conditions for each parasite, 20 μl of a 0.5 mM resazurin solution was added, and the plates were incubated for an additional 4 hours under the same conditions. Fluorescence was measured at 544 nm for excitation and 590 nm for emission using a Synergy 2 Multi-Mode Reader (Biotek, Winooski, VT, USA). Results were expressed as the percentage of parasite growth inhibition compared to controls (untreated parasites) and represent the average of at least three independent experiments. The effect was evaluated by determining the IC50 value (the concentration required to inhibit 50% growth), calculated using non-linear regression curves via GraphPad Prism version 8.1.1 for Windows (GraphPad Software, San Diego, CA, USA).

[2] = Cytotoxicity on THP-1-derived macrophages (MTT assay); assay type: cell-based; details: human, THP-1-derived macrophages (PMA-differentiated), value or interval
Protocol: The THP-1 cell line, a human leukemia line (ATCC® TIB-202™), was cultured in RPMI-1640 medium supplemented with 10% heat-inactivated fetal bovine serum (FBS), 2 mM. L-Glutamine, 100 IU mL^−1 penicillin/streptomycin, and 20 mM HEPES. The cells were maintained in a humidified incubator at 37 °C with 5% CO2. Subculturing was performed every three days, using 20 mL of media at a concentration of 2 × 10^5 cells per mL in a T75 flask. All cell culture reagents were purchased from Lonza Bioscience (Morrisville, NC).
The cytotoxicity of the compounds on THP-1-derived macrophages was evaluated using the colorimetric MTT assay (3-(4,5-dimethylthiazol-2-yl)-2,5-diphenyltetrazolium bromide), as described in Magoulas et al. (2021).[28] THP-1 cells were suspended in complete RPMI medium at a density of 1 × 10^6 cells per mL, and 100 μL of this suspension was seeded into each well of a 96-well plate. The cells were differentiated into macrophages by adding 40 ng mL^−1 of phorbol-myristate 13-acetate (PMA, Sigma, Saint Louis, MI, USA) for 24 hours, followed by replacement with fresh medium for an additional 24 hours. Subsequently, the cells were incubated with 100 μL of various compounds, diluted in complete RPMI medium, at concentrations ranging from 100 to 12.5 μM. Each condition was tested in triplicate. After 72 hours of incubation at 37 °C with 5% CO2, the medium was removed, and 200 μL of a 0.5 mg mL^−1 MTT solution, diluted in RPMI, was added to each well. The plates were incubated for an additional 4 hours. Following this incubation, 160 μL of the medium was removed and replaced with 160 μL of 2-propanol. Absorbance was measured at 570 nm using a Synergy 2 Multi-Mode Reader (Biotek, Winooski, VT, USA). Cytotoxicity was determined by presenting the CC50 (the concentration of the drug that reduces cell viability by 50%) interval or by calculating the CC50 value through non-linear regression analysis using GraphPad Prism version 8.1.1 for Windows (GraphPad Software, San Diego, CA, USA). The results represent the average of at least three independent experiments.

L6 cells = assay: Cytotoxic activity against rat skeletal myoblast L6 cells (Alamar Blue); assay type: cell-based; details: 120 h, cytotoxicity, 5 days
Protocol: The cytotoxicity against mammalian cells was assessed using microtitre plates. Briefly, L6 cells (a rat skeletal muscle line) were seeded at 1 × 10^4 mL^−1 in 200 μL of RPMI-1640 growth medium (with 10% fetal calf serum) containing 7 different compound concentrations in a range previously established to encompass both the IC50 and IC90 values. The plates were incubated for 5 days at 37 °C and 20 μL Alamar Blue (Biosource Ltd, Wilton, North Yorkshire England.) was then added to each well. After an additional 8 hours incubation, the fluorescence was determined using a Gemini fluorescent plate reader (Molecular Devices). Inhibition of growth was calculated by comparison with control values and IC50 and IC90 values were determined in triplicate using linear regression analysis.

T. cruzi epimastigotes = assay: Activity against Trypanosoma cruzi epimastigotes (Alamar Blue growth inhibition); assay type: cell-based, Trypanosoma cruzi (strain CL Brener); details: CL Brener
Protocol: (§1) Trypanocidal activity was assessed by growing parasites in microtiter plates in the presence of various drug concentrations. […] The plates were incubated for 4 days at 28 °C and 20 μL Alamar Blue (Biosource UK Ltd) was then added to each well. After an additional 3 days incubation, the fluorescence was determined using a Gemini fluorescent plate reader (Molecular Devices). Inhibition of growth was calculated by comparison with control values and IC50 and IC90 values were determined in triplicate using linear regression analysis.

[3] = system: bloodstream-form Trypanosoma brucei; assay: Activity against bloodstream-form Trypanosoma brucei (Alamar Blue growth inhibition); assay type: cell-based, Trypanosoma brucei (strain 427); details: for IC50 / IC90: Trypanosoma brucei, bloodstream form; for IC50: concentration that inhibits growth by 50%, read-out: T. brucei IC50; for IC90: concentration that inhibits growth by 90%, read-out: T. brucei IC90; for S.I. (selectivity index): ratio of IC50 values obtained with L6 cells and T. brucei
Protocol: as §1, with “Bloodstream form T. brucei (strain 427) were cultured at 37 °C in modified Iscove's medium. Trypanocidal” for “Trypanocidal”, “48 hours” for “4 days”, “37” for “28”, “Blue” for “Blue (Biosource UK Ltd)”, “overnight” for “3 days”

[4] = system: T. cruzi intracellular amastigotes; assay: microbe, parasite or virus in culture; assay type: cell-based, Trypanosoma cruzi CL Brener PpyRE9h:mScarlet; details: Trypanosoma cruzi, 120 h; in HeLa cells, 5 days
Protocol: Assays were performed in 96-well black (clear bottom) microtitre plates (Corning Inc.). HeLa ^† cells were seeded at 10^4 per well, incubated for 3 days, and then infected with T. cruzi CL Brener PpyRE9h : mScarlet[25] culture form trypomastigotes (1 : 1 multiplicity of infection). After 16 hours, extracellular parasites were removed by washing in growth medium (×3), test compounds were added, and the plates incubated for 5 days. Fluorescence intensities were then determined using a BMG FLUOstar Omega plate reader (ex 545 nm, em 590 nm), and the data analysed using GraphPad Prism 9.0 software. The values were expressed as IC50/90 ± SD and are the mean of triplicate experiments.

Row | SMILES | IC50 [1] | SI (promastigotes) CC50/Li IC50 [1] | CC50 at 72 h [2] | IC50 (L6 cells) | IC50 (T. cruzi epimastigotes) | IC90 (T. cruzi epimastigotes) | IC50 [3] | IC90 [3] | S.I. (selectivity index) [3] | IC50 [4] | IC90 [4]
1 | O=C(NCc1ccc(C23CC4CC(CC(C4)C2)C3)cc1)c1ccc([N+](=O)[O-])o1 [1a] | 3.46 µM | SI > 29 | > 100000 nM | – | – | – | – | – | – | – | –
2 | O=C(NCCc1ccc(C23CC4CC(CC(C4)C2)C3)cc1)c1ccc([N+](=O)[O-])o1 [1b] | 0.66 µM | – | 50000 to 100000 nM | – | – | – | – | – | – | – | –
3 | O=C(Nc1ccc(C2C3CC4CC(C3)CC2C4)cc1)c1ccc([N+](=O)[O-])o1 (centres unmarked) [2a, N-[4-(2-Adamantyl)phenyl]-5-nitrofuran-2-carboxamide] | 0.12 µM | – | 1560 to 6250 nM | 470 ± 70 nM | 550 ± 50 nM | 1200 ± 30 nM | 130 ± 40 nM | 330 ± 20 nM | 4 | – | –
4 | O=C(NCCc1ccc(C2C3CC4CC(C3)CC2C4)cc1)c1ccc([N+](=O)[O-])o1 (centres unmarked) [2c, N-[4-(2-Adamantyl)phenethyl]-5-nitrofuran-2-carboxamide] | 0.05 µM | – | 3130 to 12500 nM | 1800 ± 200 nM | 280 ± 80 nM | 1200 ± 80 nM | 42 ± 8 nM | 73 ± 8 nM | 42 | – | –
5 | O=C(Cn1ccnc1[N+](=O)[O-])Nc1ccc(C23CC4CC(CC(C4)C2)C3)cc1 [3a, N-[4-(1-Adamantyl)phenyl]-2-(2-nitro-1H-imidazol-1-yl)acetamide] | 0.7 µM | – | 25000 to 100000 nM | – | – | – | – | – | – | – | –
6 | O=C(Cn1ccnc1[N+](=O)[O-])NCc1ccc(C23CC4CC(CC(C4)C2)C3)cc1 [3b, N-[4-(1-Adamantyl)benzyl]-2-(2-nitro-1H-imidazol-1-yl)acetamide] | 13.8 µM | – | 50000 to 100000 nM | – | – | – | – | – | – | – | –
7 | O=C(Cn1ccnc1[N+](=O)[O-])NCCc1ccc(C23CC4CC(CC(C4)C2)C3)cc1 [3c, N-[4-(1-Adamantyl)phenethyl]-2-(2-nitro-1H-imidazol-1-yl) acetamide] | 22.1 µM | – | 50000 to 100000 nM | – | – | – | – | – | – | – | –
8 | O=C(Cn1ccnc1[N+](=O)[O-])NCc1ccc(C2C3CC4CC(C3)CC2C4)cc1 (centres unmarked) [4b, N-[4-(2-Adamantyl)benzyl]-2-(2-nitro-1H-imidazol-1-yl)acetamide] | > 40 µM | – | > 100000 nM | – | – | – | – | – | – | – | –
9 | O=C(Cn1ccnc1[N+](=O)[O-])NCCc1ccc(C2C3CC4CC(C3)CC2C4)cc1 (centres unmarked) [4c, N-[4-(2-Adamantyl)phenethyl]-2-(2-nitro-1H-imidazol-1-yl)acetamide] | 37.9 µM | SI > 1 | > 50000 nM | – | – | – | – | – | – | – | –
10 | O=C(Cc1ccc(C23CC4CC(CC(C4)C2)C3)cc1)NCCn1ccnc1[N+](=O)[O-] [5a, 2-[4-(1-Adamantyl)phenyl]-N-[2-(2-nitro-1H-imidazol-1-yl)ethyl] acetamide] | 3.48 µM | – | 25000 to 50000 nM | – | – | – | – | – | – | – | –
11 | O=C(Cc1ccc(C23CC4CC(CC(C4)C2)C3)cc1)NCCCn1ccnc1[N+](=O)[O-] [5b, 2-[4-(1-Adamantyl)phenyl]-N-[3-(2-nitro-1H-imidazol-1-yl)propyl] acetamide] | 4.81 µM | – | 50000 to 100000 nM | – | – | – | – | – | – | – | –
12 | O=C(NCCn1cnc([N+](=O)[O-])n1)c1ccc(C23CC4CC(CC(C4)C2)C3)cc1 [6a, 4-(1-Adamantyl)-N-[2-(3-nitro-1H-1,2,4-triazol-1-yl)ethyl] benzamide] | 0.74 µM | – | 25000 to 50000 nM | 28000 ± 7000 nM | 540 ± 20 nM | 1200 ± 10 nM | 230 ± 50 nM | 360 ± 30 nM | 120 | 4880 ± 510 nM | 21400 ± 3400 nM
13 | O=C(Nc1ccc(C23CC4CC(CC(C4)C2)C3)cc1)c1ccc([N+](=O)[O-])o1 [7a, N-[4-(1-Adamantyl)phenyl]-5-nitrofuran-2-carboxamide] | 0.76 µM | – | 6250 to 25000 nM | < 30 nM | > 25 nM | > 25 nM | 91 ± 5 nM | 220 ± 10 nM | – | – | –
14 | O=C(Cn1cnc([N+](=O)[O-])n1)Nc1ccc(C23CC4CC(CC(C4)C2)C3)cc1 [7b, N-[4-(1-Adamantyl)phenyl]-2-(3-nitro-1H-1,2,4-triazol-1-yl)acetamide] | – | – | – | 7100 ± 300 nM | – | – | 200 ± 70 nM | 910 ± 190 nM | 35 | – | –
15 | O=C(Cn1cnc([N+](=O)[O-])n1)Nc1ccccc1C12CC3CC(CC(C3)C1)C2 [7c, N-[2-(1-Adamantyl)phenyl]-2-(3-nitro-1H-1,2,4-triazol-1-yl)acetamide] | – | – | – | – | > 25000 nM | > 25000 nM | > 25000 nM | > 25000 nM | – | – | –
16 | CSc1ccc(OCc2ncc([N+](=O)[O-])n2C)cc1 [Fxd, fexinidazole, reference compound] | – | – | – | – | – | – | 2400 ± 200 nM | – | – | – | –
